Each structure is given as a SMILES string.

These results are taken from patent US20230122510A1, “CANNABINOID DERIVATIVES” (CANOPY GROWTH CORPORATION, priority 2019, published 2023).

One experiment concerns the target T1, human CB2 receptor (Homo sapiens, UniProt P34972).
T1 construct: host or cells: CHO-K1
Description: CB2 radioligand competitive binding assay ([3H]CP 55,940 displacement). To be noted: for IC50: displacement of 0.6 nM [3H]CP55,940, membranes of CHO-K1 cells expressing human CB2 receptor; for Selectivity CB2: fold difference between CB1 and CB2 binding, the receptor with higher binding affinity (CB2 over CB1). The procedure: Compounds of the present disclosure were tested for CB1 receptor binding affinity and for CB2 receptor binding affinity. As used herein, “binding affinity” is represented by the IC50 value, which was experimentally determined as described herein. The lower the IC50 value the higher the binding affinity. A compound of the present disclosure may be said to have “binding selectivity” if it has a higher binding affinity for one receptor compared to the other.
The membranes were prepared from CHO-K1 (Chinese hamster ovary) cells stably transfected with the human CB2 receptor (Cat. #ES-111-C; Perkin Elmer, Boston, Mass.). The cells were grown adherently and maintained in Ham's F12 medium containing 10% fetal bovine serum (FBS), penicillin, streptomycin and geneticin (G418) at 37° C. in a humid atmosphere of 5% CO2 following the manufacturer's instructions.
For membrane preparation the cells were washed with PBS and scraped off the plates in cold homogenization buffer (25 mM HEPES (pH 7.4), 2 mM EDTA) containing protease inhibitor cocktail (Sigma Cat. #P8340). The cell suspension was homogenized with a Pro-PK-01200D Polytron Homogenizer (Pro Scientific) and then centrifuged for 30 min at 120,000×g. The supernatant was discarded and the pellet was re-suspended in the homogenization buffer and stored at −80° C. until the time of use.
In this experiment, 3H radiolabeled CP 55,940, i.e. [3H]CP 55,940 (Perkin Elmer, Boston, Mass.), was used as a radioligand for the CB2 receptor to determine the binding affinity of compounds for the CB2 receptor (Scheme 6; above).
The competition binding experiments (single dose and dose-response) were performed by incubating 0.6 nM of [3H]CP55,940 (specific activity 101 Ci/mmol, Perkin Elmer) and different concentrations of compounds disclosed herein with membranes prepared as above from CHO-K1 cells expressing human CB2 receptor (1 μg of protein/well), 50 mM Tris-HCl (pH 7.4), 5 mM MgCl2, 1 mM CaCl2, and 2 mg/mL BSA.
For the single dose experiments, the compound stocks (usually 10 mM in DMSO) were diluted to working stocks in the binding buffer to give the final compound concentrations of 10 μM and 1 μM. For the dose-response experiments the test compounds were sequentially diluted to provide the desired concentration range for the […] determination. In each case the compounds were pre-incubated with the membrane for 20 min, before adding the radioligand.
After incubation with the radioligand for 60 min at 37° C., the incubation was terminated by rapid filtration of assay mixture through MultiScreen®HTS^+ 96-well filter plates (Millipore, Cat. #MSFCNXB), pre-soaked for 60 min with 50 mM Tris-HCl (pH 7.4) containing 0.33% polyethylenimine (PEI). The nonspecific binding (NSB) was determined in the presence of 10 μM unlabelled CP55,940. After drying the filter plate at 50° C. for at least 60 min, the filter-bound radioactivity was determined by scintillation spectrometry using the 1450 MicroBeta Plate Counter (Perkin Elmer, Boston, Mass.). From the dose-response experiments, the IC50 values were determined (see Table 1, CB2 IC50).
Where the test compound had about the same affinity for both receptors, this is represented by a value of 1.00 in the column for both receptors.

The next experiment deals with T2, human CB1 receptor (Homo sapiens, UniProt P21554).
T2 construct: host or cells: CHO-K1
As to the kind of experiment: CB1 radioligand competitive binding assay ([3H]CP 55,940 displacement). To be noted: for IC50: displacement of 0.8 nM [3H]CP 55,940, membranes of CHO-K1 cells expressing human CB1 receptor; for Selectivity CB1: fold difference between CB1 and CB2 binding, (CB1 over CB2).

T2 sequence (P21554 whole entry): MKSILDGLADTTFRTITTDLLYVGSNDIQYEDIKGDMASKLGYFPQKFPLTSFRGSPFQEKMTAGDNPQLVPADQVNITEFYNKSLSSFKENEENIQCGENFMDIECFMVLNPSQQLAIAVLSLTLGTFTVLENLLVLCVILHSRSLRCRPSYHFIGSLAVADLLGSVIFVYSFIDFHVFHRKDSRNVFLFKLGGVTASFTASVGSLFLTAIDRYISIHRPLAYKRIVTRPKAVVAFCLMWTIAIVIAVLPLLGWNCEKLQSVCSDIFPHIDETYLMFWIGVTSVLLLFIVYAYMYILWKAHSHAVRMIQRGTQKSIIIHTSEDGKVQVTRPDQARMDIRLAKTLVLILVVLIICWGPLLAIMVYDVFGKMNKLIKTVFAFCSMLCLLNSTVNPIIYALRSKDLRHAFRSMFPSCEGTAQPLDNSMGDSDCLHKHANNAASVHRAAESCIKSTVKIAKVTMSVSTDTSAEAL
T1 sequence (P34972 whole entry): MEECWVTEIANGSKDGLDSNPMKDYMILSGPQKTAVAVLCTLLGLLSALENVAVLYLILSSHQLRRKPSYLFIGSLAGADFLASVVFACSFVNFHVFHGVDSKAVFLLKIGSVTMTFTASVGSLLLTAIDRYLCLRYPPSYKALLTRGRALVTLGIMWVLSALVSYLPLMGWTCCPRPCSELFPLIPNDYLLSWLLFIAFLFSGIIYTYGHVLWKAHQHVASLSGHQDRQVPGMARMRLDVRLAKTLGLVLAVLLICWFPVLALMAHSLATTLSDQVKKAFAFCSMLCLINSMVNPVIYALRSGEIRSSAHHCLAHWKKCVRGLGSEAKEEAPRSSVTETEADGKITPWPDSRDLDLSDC

With `CCCCCc1cc(O)c(C/C=C(\C)CCC=C(C)C)c(O)c1-c1cncnc1` [Compound 13, 2-(3,7-dimethylocta-2,6-dien-1-yl)-5-pentyl-4-(pyrimidin-5-yl) benzene-1,3-diol], the IC50 on human CB2 receptor and at human CB1 receptor was 1000 to 4990 nM in each case. Besides, the “Selectivity CB2” value on human CB2 receptor worked out at 1.85 fold.

Regarding `CCCCCc1cc(O)c(C/C=C(\C)CCC=C(C)C)c(O)c1-c1ccncc1` [Compound 14, 2-(3,7-dimethylocta-2,6-dien-1-yl)-5-pentyl-4-(pyridin-4-yl)benzene-1,3-diol], the IC50 at human CB2 receptor lay in the range of 500 to 990 nM; on human CB1 receptor it was 1000 to 4990 nM. The “Selectivity CB2” value at human CB2 receptor was 2.27 fold.

For `CCCCCc1cc(O)c(C/C=C(\C)CCC=C(C)C)c(O)c1-c1ccco1` [Compound 15, 2-(3,7-dimethylocta-2,6-dien-1-yl)-4-(furan-2-yl)-5-pentylbenzene-1,3-diol], the IC50 at human CB2 receptor and on human CB1 receptor was 1000 to 4990 nM in each case. Moreover, the “Selectivity CB2” value at human CB2 receptor is 2.11 fold.

Take `CCCCCc1cc(O)c(C/C=C(\C)CCC=C(C)C)c(O)c1-c1ccsc1` [Compound 17, 2-(3,7-dimethylocta-2,6-dien-1-yl)-5-pentyl-4-(thiophen-3-yl)benzene-1,3-diol]: at human CB2 receptor, the IC50 lay within 500 to 990 nM and the “Selectivity CB2” value is 2.10 fold. Also, the IC50 on human CB1 receptor fell in the range of 1000 to 4990 nM.

In the case of `CCCCCc1cc(O)c(C/C=C(\C)CCC=C(C)C)c(O)c1-c1cncs1` [Compound 18, 2-(3,7-dimethylocta-2,6-dien-1-yl)-5-pentyl-4-(thiazol-5-yl) benzene-1,3-diol], at human CB2 receptor, the IC50 was 500 to 990 nM and the “Selectivity CB2” value worked out at 2.32 fold. Further, the IC50 at human CB1 receptor lay within 1000 to 4990 nM.

For `CCCCCc1cc(O)c(C/C=C(\C)CCC=C(C)C)c(O)c1-c1cc2ccccc2o1` [Compound 32, 4-(benzofuran-2-yl)-2-(3,7-dimethylocta-2,6-dien-1-yl)-5-pentylbenzene-1,3-diol], the IC50 was in the range of 1000 to 4990 nM at human CB2 receptor and 500 to 990 nM at human CB1 receptor. The “Selectivity CB1” value at human CB1 receptor was determined as 1.16 fold.

Regarding `CCCCCc1cc(O)c(C/C=C(\C)CCC=C(C)C)c(O)c1-c1cc2ccccc2s1` [Compound 33, 4-(benzo[b]thiophen-2-yl)-2-(3,7-dimethylocta-2,6-dien-1-yl)-5-pentylbenzene-1,3-diol], the IC50 at human CB2 receptor lay within 500 to 990 nM; at human CB1 receptor, 1000 to 4990 nM. The “Selectivity CB2” value at human CB2 receptor was found to be 1.45 fold.

Consider `CCCCCc1cc(O)c(C/C=C(\C)CCC=C(C)C)c(O)c1-c1cc(C)cs1` [Compound 34, 2-(3,7-dimethylocta-2,6-dien-1-yl)-4-(4-methylthiophen-2-yl)-5-pentylbenzene-1,3-diol], for which, on human CB2 receptor, the IC50 is below 500 nM and the “Selectivity CB2” value came out at 2.15 fold. The same compound had an IC50 at human CB1 receptor of 500 to 990 nM.

In the case of `CCCCCc1cc(O)c(C/C=C(\C)CCC=C(C)C)c(O)c1-c1ccnn1C` [Compound 35, (E)-2-(3,7-dimethylocta-2,6-dien-1-yl)-4-(1-methyl-1H-pyrazol-5-yl)-5-pentylbenzene-1,3-diol], on human CB2 receptor, the IC50 lay in the range of 1000 to 4990 nM and the “Selectivity CB2” value was 1.21 fold. The IC50 at human CB1 receptor lay within 1000 to 4990 nM.

For the compound `CCCCCc1cc(O)c(C/C=C(\C)CCC=C(C)C)c(O)c1-c1cccc(N2CCOCC2)c1` [Compound 36, 3-(3,7-dimethylocta-2,6-dien-1-yl)-3′-morpholino-6-pentyl-[1,1′-biphenyl]-2,4-diol], the IC50 on human CB2 receptor and at human CB1 receptor was below 500 nM each time. At human CB2 receptor, the “Selectivity CB2” value amounted to 8.93 fold.

With `CCCCCc1cc(O)c(C/C=C(\C)CCC=C(C)C)c(O)c1-c1c(C)noc1C` [Compound 37, 4-(3,5-dimethylisoxazol-4-yl)-2-(3,7-dimethylocta-2,6-dien-1-yl)-5-pentylbenzene-1,3-diol], on human CB2 receptor, the IC50 fell in the range of 1000 to 4990 nM and the “Selectivity CB2” value is given as 7.14 fold. On human CB1 receptor, the IC50 was above 5000 nM.

On to `CCCCCc1cc(O)c(C/C=C(\C)CCC=C(C)C)c(O)c1-c1cn[nH]c1` [Compound 38, 2-(3,7-dimethylocta-2,6-dien-1-yl)-5-pentyl-4-(1H-pyrazol-4-yl) benzene-1,3-diol], for which, at human CB2 receptor, the IC50 is 500 to 990 nM and the “Selectivity CB2” value is 1.21 fold. Besides, the IC50 on human CB1 receptor fell in the range of 500 to 990 nM.

Turning to `CCCCCc1cc(O)c(C/C=C(\C)CCC=C(C)C)c(O)c1-c1ccnc(C)c1` [Compound 39, 2-(3,7-dimethylocta-2,6-dien-1-yl)-4-(2-methylpyridin-4-yl)-5-pentylbenzene-1,3-diol], at human CB2 receptor, the IC50 lay in the range of 500 to 990 nM and the “Selectivity CB2” value worked out at 2.18 fold. Further, on human CB1 receptor, the IC50 lay within 1000 to 4990 nM.

For the compound `CCCCCc1cc(O)c(C/C=C(\C)CCC=C(C)C)c(O)c1-c1ccc2nccnc2c1` [Compound 40, 2-(3,7-dimethylocta-2,6-dien-1-yl)-5-pentyl-4-(quinoxalin-6-yl)benzene-1,3-diol], the IC50 on human CB2 receptor lay in the range of 1000 to 4990 nM. Also, on human CB1 receptor, the IC50 lay in the range of 500 to 990 nM and the “Selectivity CB1” value came out at 1.65 fold.

`CCCCCc1cc(O)c(C/C=C(\C)CCC=C(C)C)c(O)c1-c1ccc2[nH]ncc2c1` [Compound 41, 2-(3,7-dimethylocta-2,6-dien-1-yl)-4-(1H-indazol-5-yl)-5-pentylbenzene-1,3-diol] displayed an IC50 at human CB2 receptor of 500 to 990 nM. At human CB1 receptor, the IC50 is below 500 nM and the “Selectivity CB1” value turned out to be 79.18 fold.

Take `CCCCCc1cc(O)c(C/C=C(\C)CCC=C(C)C)c(O)c1-c1cnc2ccccc2c1` [Compound 42, 2-(3,7-dimethylocta-2,6-dien-1-yl)-5-pentyl-4-(quinolin-3-yl) benzene-1,3-diol]: the IC50 on human CB2 receptor lay in the range of 1000 to 4990 nM. In addition, on human CB1 receptor, the IC50 was 500 to 990 nM and the “Selectivity CB1” value is recorded as 2.69 fold.

As for `CCCc1cc(O)c(C/C=C(\C)CCC=C(C)C)c(O)c1-c1ccsc1` [Compound 43, 2-(3,7-dimethylocta-2,6-dien-1-yl)-5-propyl-4-(thiophen-3-yl) benzene-1,3-diol], at human CB2 receptor, the IC50 was 500 to 990 nM and the “Selectivity CB2” value was determined as 2.26 fold. Besides, on human CB1 receptor, the IC50 lay within 1000 to 4990 nM.

For the compound `CCCc1cc(O)c(C/C=C(\C)CCC=C(C)C)c(O)c1-c1cc2ccccc2o1` [Compound 44, 4-(benzofuran-2-yl)-2-(3,7-dimethylocta-2,6-dien-1-yl)-5-propylbenzene-1,3-diol], the IC50 on human CB2 receptor is 1000 to 4990 nM. At human CB1 receptor, the IC50 was 500 to 990 nM and the “Selectivity CB1” value is given as 1.67 fold.
